Test results reported in patent publication US20220313651A1, “INHIBITORS OF ZIKA VIRUS INFECTION” (priority 2019, published 2022).
Like-named read-outs stand apart in the source and are kept apart here.

Assays:
[1] = system: ZIKV human strain FLR (2015/Colombia); experiment: Plaque reduction inhibition assay in Vero E6 cells, ZIKV FLR; type: cell-based, Zika virus (ZIKV)
Experimental: (§1) A plaque reduction inhibition assay was carried out to measure the inhibitory activity of Z-medicaments against infections of ZIKV and DENV. […] The compound-virus mixtures were then transferred to Vero E6 cells (10^5/well) and incubated at 37° C. for 1 h.

[2] = biological target: T1, ZIKV NS2B-NS3 protease (Zika virus, UniProt Q32ZE1); experiment: ELISA binding to ZIKV NS2B-NS3 protease
T1 construct: 49-97) and NS2 protein (residues 1-185) through a covalent; made in house; host or cells: E. coli
Experimental: Binding of compounds (NPs) to ZIKV full-length E (FIG. 3A), EDIII (FIG. 3B), and NS2B-NS3 (FIG. 3C) proteins, was detected by ELISA. The percent binding was reported in the presence or absence of serially diluted NPs using the formula (1-[E/EDIII-NP]/[E/EDIII])×100 (for E/EDIII binding) or (1-[NS2B-NS3-NP]/[NS2B-NS3])×100 (for NSEB-NS3 binding). […] The concentrations of ZIKV EDIII and mAbs were 1.5 and 0.5 μg/ml, respectively. […] The concentrations of substrate (Bz-Nle-Lys-Lys-Arg-AMC) and ZIKV NS2B-NS3 protein were 4 μM and 1 μg/ml, respectively. The percent inhibition of protease activity was calculated in the presence or absence of serially diluted compounds using the formula (1-[NS2B-NS3-substrate-NP]/[NS2B-NS3-substrate])×100. The IC50 values were calculated based on the percent inhibition. The data are expressed as mean±s.e.m. (n=4).
The data are expressed as mean±s.e.m. (n=4), and DMSO was used as negative control. Surface plasmon resonance (SPR) analysis of the binding between ST087010 and ZIKV EDIII (FIG. 6D) or NS2B-NS3 (FIG. 6E) protein was performed. Binding affinity was shown as KD (equilibrium dissociation constant).
The binding between the Z-medicament and ZIKV full-length E protein, EDIII protein (E residues 298-409 fused with a C-terminal human Fc), or NS2B-NS3 protease was carried out by ELISA. Briefly, ELISA plates were pre-coated with the proteins described above at 4° C. overnight, and blocked with 2% fat-free milk at 37° C. for 2 h. Serial dilutions of the Z-medicament or DMSO (control) were then added to the plates and incubated at 37° C. for 2 h. The plates were washed with PBS containing Tween-20 (PBST), and incubated at 37° C. for 1 h with ZIKV EDIII-specific human mAb ZKA64-LALA (0.5 μg/ml) (for binding to ZIKV full-length E and EDIII proteins), or mouse sera specific to ZIKV NS2B-NS3 (for binding to NS2B-NS3 protease). The plates were washed with PBST, and incubated with horseradish peroxidase (HRP)-conjugated anti-human IgG-Fab (1:3000) or anti-mouse IgG (1:3000) antibody at 37° C. for 1 h. The 3,3′,5,5′-tetramethylbenzidine (TMB) substrate was added to the plates, and the reaction was stopped by 1 N H2SO4. Absorbance at 450 nm (A450 value) was measured by ELISA microplate reader.
Briefly, ELISA plates were coated with each protein (1 μg/ml) at 4° C. overnight, and were then incubated with blocking buffer containing 2% fat-free milk in PBST at 37° C. for 2 h. The above compounds, or DMSO control, at serial dilutions were added to the plates, and incubated at 37° C. for 2 h. After three washes using PBST, the plates were incubated at 37° C. for 2 h with ZIKV EDIII-specific human mAb ZKA64-LALA (0.5 μg/ml) (for binding to ZIKV full-length E or EDIII protein), or ZIKV NS2B-NS3-specific mouse sera (for binding to NS2B-NS3 protein). After further washes, the plates were incubated with HRP-conjugated anti-human IgG-Fab (1:3,000) or anti-mouse IgG (1:3,000) antibody at 37° C. for 1 h.

[3] = system: ZIKV rhesus macaque strain MR 766 (1947/Uganda); experiment: Plaque reduction inhibition assay in Vero E6 cells, ZIKV MR 766; type: cell-based, Zika virus (ZIKV)
Experimental: as §1

[4] = system: ZIKV human strain PAN2016 (2016/Panama); experiment: Plaque reduction inhibition assay in Vero E6 cells, ZIKV PAN2016; type: cell-based, Zika virus (ZIKV)
Experimental: as §1

[5] = system: ZIKV FLR strain; experiment: Combinatorial effects of gossypol with other Z-medicaments, ZIKV FLR; type: cell-based, Zika virus (ZIKV); conditions: for Fold of Enhancement / CI (combination index): ZIKV FLR; for Fold of Enhancement: IC50 alone / in mixture; for CI (combination index): named compound in combination with gossypol
Experimental: The unbound viruses and Z-medicaments were removed, and the cells were cultured at 37° C. for 4-5 days, followed by staining with 0.5% crystal violet. The Z-medicaments without combinations were used as controls. The IC50 of the Z-medicaments was calculated as described above.
The Z-medicaments were then analyzed for synergistic effects based on the combination index (CI) and IC50 values using the CalcuSyn program. Specifically, CI values <1 and >1 indicate synergy and antagonism, respectively. Synergy was further identified as five different categories: CI values <0.1, 0.1-0.3, 0.3-0.7, 0.7-0.85, and 0.85-0.90 indicate very strong synergism, strong synergism, synergism, moderate synergism, and slight synergism, respectively. Fold enhancement of anti-ZIKV potency is expressed as the ratio of molar concentrations of the Z-medicaments tested alone and in the mixture.

[6] = Zika virus, Vero C1008, Vero E6 cells, Table 1, read-out: IC50 against ZIKV strain FLR
[7] = Zika virus, Vero C1008, in Macaca mulatta, Vero E6 cells, Table 1, read-out: IC50 against ZIKV strain MR 766
[8] = Zika virus, Vero C1008, Vero E6 cells, Table 1, read-out: IC50 against ZIKV strain PAN2016

SMILES: Cc1cc2c(C(C)C)c(O)c(O)c(/C=N/n3c(=O)[nH][nH]c3=O)c2c(O)c1-c1c(C)cc2c(C(C)C)c(O)c(O)c(/C=N/n3c(=O)[nH][nH]c3=O)c2c1O [ST087010]
- IC50 ([1]; Vero E6 cells, Table 7, gossypol derivatives, read-out: ZIKV strains IC50, FLR): 2.76 ± 0.1 µM
- EC50 ([2]; detected with NS2B-NS3-immunized mouse sera, read-out: EC50, binding to ZIKV NS2B-NS3 protein): 21.9 µM
- IC50 ([3]; Vero E6 cells, Table 7, gossypol derivatives, read-out: ZIKV strains IC50, MR766): 3.52 ± 0.2 µM
- IC50 ([4]; Vero E6 cells, Table 7, gossypol derivatives, read-out: ZIKV strains IC50, PAN2016): 3.17 ± 0.18 µM

SMILES: C[C@@H]1CC[C@@]2(OC1)O[C@H]1[C@@H](O)[C@H]3[C@@H]4CC[C@H]5C[C@@H](O[C@@H]6O[C@H](CO)[C@H](O[C@@H]7O[C@H](CO)[C@@H](O)[C@H](O[C@@H]8OC[C@@H](O)[C@H](O)[C@H]8O)[C@H]7O[C@@H]7O[C@H](CO)[C@H](O)[C@H](O[C@@H]8O[C@H](CO)[C@@H](O)[C@H](O)[C@H]8O)[C@H]7O)[C@H](O)[C@H]6O)[C@H](O)C[C@]5(C)[C@H]4CC[C@]3(C)[C@H]1[C@@H]2C [Digitonin, digitonin]
- Fold of Enhancement ([5]; gossypol + digitonin): 2.04
- CI (combination index) [5]: 0.95
- IC50 [1, 6]: 3.34 ± 0.22 µM
- Binding to ZIKV NS2B-NS3 protein (in words) [2]: bound to no ZIKV proteins tested
- IC50 [3, 7]: 3.77 ± 0.31 µM
- IC50 [4, 8]: 4.31 µM

SMILES: C[C@H]1[C@H]2CC[C@H]3[C@@H]4CC=C5C[C@@H](N(C)C)CC[C@]5(C)[C@H]4CC[C@]23CN1C [Conessine, conessine]
- Fold of Enhancement ([5]; gossypol + conessine): 2.13
- CI (combination index) [5]: 0.85
- Binding to ZIKV NS2B-NS3 protein (in words) [2]: bound to no ZIKV proteins tested

SMILES: COc1cc(/C=C/C(=O)CC(=O)/C=C/c2ccc(O)c(OC)c2)ccc1O [Curcumin, curcumin]
- Fold of Enhancement ([5]; gossypol + curcumin): 3.84
- CI (combination index) [5]: 0.49
- Binding to ZIKV NS2B-NS3 protein (in words) [2]: much lower binding affinity

SMILES: Cc1cc2c(C(C)C)c(O)c(O)c(C=O)c2c(O)c1-c1c(C)cc2c(C(C)C)c(O)c(O)c(C=O)c2c1O [Gossypol, gossypol]
- IC50 ([5]; Zika virus, Vero C1008, read-out: IC50 Alone): 0.26 ± 0.01 µM
- IC50 [1, 6]: 0.21 ± 0.01 µM
- IC50 ([1]; Zika virus, Vero C1008, read-out: ZIKV strains IC50, FLR): 0.73 ± 0.07 µM
- IC50 [3, 7]: 3.75 ± 0.01 µM
- IC50 ([3]; Zika virus, Vero C1008, in Macaca mulatta, read-out: ZIKV strains IC50, MR766): 4.14 ± 0.05 µM
- IC50 [4, 8]: 3.48 µM
- IC50 ([4]; Zika virus, Vero C1008, read-out: ZIKV strains IC50, PAN2016): 3.78 ± 0.3 µM
